Data as given in article PMC6834145, “Identification of a Novel Oligosaccharide in Maple Syrup as a Potential Alternative Saccharide for Diabetes Mellitus Patients” (International Journal of Molecular Sciences, 2019).

Experiments:
[1] = biological target: T1, Invertase from Candida utilis (Williopsis jadinii, UniProt O94224); assay: glucose release from sucrose, capillary electrophoresis of PMP derivatives; type: biochemical; conditions: substrate sucrose (100 µg), acetate buffer pH 4.5, 15 min
T1 construct: gene INV1; commercial native enzyme, Seikagaku Biobusiness Corporation
T1 sequence (O94224 1-533): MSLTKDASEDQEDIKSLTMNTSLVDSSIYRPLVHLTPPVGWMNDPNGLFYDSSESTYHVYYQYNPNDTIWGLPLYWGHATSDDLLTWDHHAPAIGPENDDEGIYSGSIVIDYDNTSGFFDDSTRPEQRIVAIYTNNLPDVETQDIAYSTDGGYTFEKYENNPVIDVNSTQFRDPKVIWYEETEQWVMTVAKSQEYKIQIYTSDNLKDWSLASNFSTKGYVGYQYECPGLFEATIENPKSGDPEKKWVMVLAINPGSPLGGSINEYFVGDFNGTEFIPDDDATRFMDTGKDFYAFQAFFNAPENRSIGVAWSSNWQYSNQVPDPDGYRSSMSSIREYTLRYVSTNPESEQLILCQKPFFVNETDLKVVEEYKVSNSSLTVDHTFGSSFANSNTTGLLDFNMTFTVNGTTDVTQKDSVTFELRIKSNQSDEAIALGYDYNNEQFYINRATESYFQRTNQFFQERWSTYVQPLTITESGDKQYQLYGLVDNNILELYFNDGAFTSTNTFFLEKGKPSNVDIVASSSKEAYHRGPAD
Description: glucose release from sucrose, capillary electrophoresis of PMP derivatives on Invertase from Candida utilis

[2] = biological target: T2, maltase (α-(1-4) glucosidase) from Saccharomyces; assay: glucose release from maltose, capillary electrophoresis of PMP derivatives; type: biochemical; conditions: substrate maltose; citric buffer pH 6.8 or acetate buffer pH 4.5 (text does not assign clearly), 15 min
T2 construct: gene MAL12; commercial enzyme, Sigma-Aldrich Japan
Description: glucose release from maltose, capillary electrophoresis of PMP derivatives on maltase (α-(1-4) glucosidase) from Saccharomyces

IC50 [1]: 1.17 mM | IC50 [2]: 1.72 mM
Structure (SMILES): OC[C@H]1OC(O)[C@H](O)[C@@H](O)[C@@H]1OC[C@H]1OC(O)(CO)[C@@H](O)[C@@H]1O (some centres unmarked) [maplebiose1]
